Assay results taken from patent publication US10563263B2, “Genetic polymorphisms associated with statin response and cardiovascular diseases, methods of detection and uses thereof” (CELERA CORPORATION, priority 2010, dated 2020).

Test system: CHD (fatal CHD, definite non-fatal MI, or revascularization)
Experiment: CARE: SNP by pravastatin treatment interaction, logistic regression (synergy index), CHD endpoint
Assay type: in vivo, human
Details: for OR (synergy index, SNP by pravastatin treatment interaction): CARE; for OR (synergy index), CARE, Prava vs Placebo: CHD endpoint
Text: CARE was a secondary prevention trial and WOSCOPS was a primary prevention trial.
The CHD endpoint was defined in the analyses herein of CARE as a composite endpoint of fatal CHD, definite non-fatal MI, or revascularization, and was defined in the analyses herein of WOSCOPS as a composite endpoint of death from CHD, nonfatal MI, or revascularization. In both the CARE and WOSCOPS analyses herein, the CVD endpoint was defined as a composite endpoint of CHD or stroke. […] Revascularization, which can include percutaneous transluminal coronary angioplasty (PTCA), stent placement, and coronary artery bypass graft (CABG), are medical interventions that indicate the presence of CHD.
Cohort and case-only study designs were used to identify SNPs associated with response to statin treatment.
For each SNP, a logistic regression model having treatment status as the dependent variable and SNP as the independent predictor variable was performed, with terms for age, sex and race included in the model as covariates. The anti-log of the regression coefficient corresponding to the SNP is an estimate of the synergy index (SI) (Davis et al., “Imputing gene-treatment interactions when the genotype distribution is unknown using case-only and putative placebo analyses-a new method for the Genetics of Hypertension Associated Treatment (GenHAT) study”, Statistics in Medicine 23: (2004), pages 2413-2427). The SI is a ratio of odds ratios: for example in the CARE and WOSCOPS studies, the SI represents the factor by which the odds-ratio of statin treatment, compared with placebo, among major homozygous individuals is multiplied by in order to obtain the odds-ratio of treatment vs. placebo among heterozygous individuals; and multiplied by a second time to obtain the odds-ratio of treatment vs. placebo in minor homozygous individuals. The case-only study design results in a valid estimate of the SI under the assumption that genotype and treatment are independent in the population. In a randomized clinical trial, genotype and treatment are independent by design. The p-value for the regression coefficient corresponding to the SNP results from a test of the null hypothesis that the regression coefficient is equal to zero (SI is equal to one) and thus small p-values indicate the SI is unlikely equal to one and that the effect of treatment likely differs by genotype.
A case-only study design was used to test whether the reduction of CHD events by statin therapy (for CARE and WOSCOPS studies) differed according to genotype (a treatment by SNP interaction) for each SNP evaluated in the study.

SMILES: CC[C@H](C)C(=O)O[C@H]1C[C@H](O)C=C2C=C[C@H](C)[C@H](CC[C@@H](O)C[C@@H](O)CC(=O)O)[C@H]21 [Pravastatin, pravastatin]
- OR (synergy index, SNP by pravastatin treatment interaction) (rs992695, Imputed, allele C, model ADD, NMISS 790, 95% CI 0.4976-0.8019): 0.6317
- OR (synergy index, SNP by pravastatin treatment interaction) (rs992695, Imputed, allele C, model DOM, NMISS 790, 95% CI 0.4546-0.8068): 0.6056
- OR (synergy index, SNP by pravastatin treatment interaction) (rs9881685, Imputed, allele A, model ADD, NMISS 799, 95% CI 0.3695-0.7488): 0.526
- OR (synergy index, SNP by pravastatin treatment interaction) (rs9881685, Imputed, allele A, model DOM, NMISS 799, 95% CI 0.3327-0.7106): 0.4862
- OR (synergy index, SNP by pravastatin treatment interaction) (rs9936999, Imputed, allele G, model DOM, NMISS 485, 95% CI 1.294-2.746): 1.885
- OR (synergy index), CARE, Prava vs Placebo (SNP rs198462 (A1 G, A2 A), rec model, Caseonly): 1.57
- OR (synergy index), CARE, Prava vs Placebo (SNP rs198476 (A1 G, A2 A), rec model, cohort): 1.58
- OR (synergy index), CARE, Prava vs Placebo (SNP rs471579 (A1 A, A2 C), add model, Caseonly): 1.26
- OR (synergy index), CARE, Prava vs Placebo (SNP rs1324012 (A1 A, A2 G), add model, Caseonly): 0.78
- OR (synergy index), CARE, Prava vs Placebo (SNP rs1917527 (A1 A, A2 C), rec model, Caseonly): 0.34
- OR (synergy index), CARE, Prava vs Placebo (SNP rs2768652 (A1 C, A2 T), add model, cohort): 1.22
- OR (synergy index), CARE, Prava vs Placebo (SNP rs6563805 (A1 A, A2 G), add model, cohort): 0.76
- OR (synergy index), CARE, Prava vs Placebo (SNP rs7873371 (A1 A, A2 G), add model, Caseonly): 1.25
- OR (synergy index), CARE, Prava vs Placebo (SNP rs12553453 (A1 C, A2 A), add model, cohort): 1.22
- OR (synergy index), CARE, Prava vs Placebo (SNP rs12635482 (A1 C, A2 A), rec model, cohort): 0.54
- CARE OR (rs1948 allele A vs G (ref), Source CaseOnly): 1.52
- CARE OR (rs151806 allele G vs A (ref), Source cohort): 0.60
- CARE OR (rs205279 allele A vs G (ref), Source Caseonly): 1.94
- CARE OR (rs238272 allele A vs G (ref), Source CaseOnly): 1.44
- CARE OR (rs312929 allele G vs A (ref), Source cohort): 0.72
- CARE OR (rs316720 allele G vs A (ref), Source cohort): 0.67
- CARE OR (rs331555 allele A vs C (ref), Source cohort): 0.72
- CARE OR (rs354342 allele A vs G (ref), Source Caseonly): 0.70
- CARE OR (rs453625, allele A1 A (non-ref), A2 G (ref), source cohort, endpoint/model not given): 0.66
- CARE OR (rs610118 allele G vs A (ref), Source cohort): 0.43
- CARE OR (rs669684 allele G vs A (ref), Source cohort): 0.69
- CARE OR (rs842796 allele A vs G (ref), Source cohort): 1.72
- CARE OR (rs886469 allele G vs A (ref), Source cohort): 0.70
- CARE OR (rs969356 allele G vs A (ref), Source cohort): 0.69
- CARE OR (rs1035618 allele A vs C (ref), Source Caseonly): 1.38
- CARE OR (rs1076733, allele A1 A (non-ref), A2 G (ref), source cohort, endpoint/model not given): 0.70
- CARE OR (rs1182878, allele A1 A (non-ref), A2 G (ref), source cohort, endpoint/model not given): 0.79
- CARE OR (rs1343563 allele C vs A (ref), Source cohort): 0.61
- CARE OR (rs1349282 allele A vs G (ref), Source cohort): 0.55
- CARE OR (rs1382787 allele G vs A (ref), Source cohort): 1.37
- CARE OR (rs1474396, allele A1 A (non-ref), A2 C (ref), source cohort, endpoint/model not given): 1.35
- CARE OR (rs1615197 allele G vs A (ref), Source CaseOnly): 1.54
- CARE OR (rs1884897 allele A vs G (ref), Source cohort): 2.24
- CARE OR (rs2008165 allele G vs A (ref), Source cohort): 0.57
- CARE OR (rs2023650 allele A vs G (ref), Source cohort): 0.76
- CARE OR (rs2060411 allele A vs G (ref), Source cohort): 1.37
- CARE OR (rs2104506 allele A vs C (ref), Source cohort): 0.75
- CARE OR (rs2129571, allele A1 A (non-ref), A2 G (ref), source cohort, endpoint/model not given): 0.62
- CARE OR (rs2145540 allele A vs G (ref), Source cohort): 0.51
- CARE OR (rs2268650 allele A vs G (ref), Source cohort): 0.64
- CARE OR (rs2273816 allele A vs G (ref), Source CaseOnly): 1.56
- CARE OR (rs2290193, allele A1 C (non-ref), A2 A (ref), source cohort, endpoint/model not given): 0.53
- CARE OR (rs2376764 allele A vs G (ref), Source Caseonly): 0.61
- CARE OR (rs2418412 allele G vs A (ref), Source cohort): 2.20
- CARE OR (rs2483641, allele A1 A (non-ref), A2 G (ref), source cohort, endpoint/model not given): 0.65
- CARE OR (rs2534752 allele G vs A (ref), Source cohort): 1.60
- CARE OR (rs2626130 allele G vs A (ref), Source cohort): 1.29
- CARE OR (rs2695026 allele A vs G (ref), Source Caseonly): 0.70
- CARE OR (rs2793086 allele C vs A (ref), Source cohort): 0.61
- CARE OR (rs2941528 allele A vs G (ref), Source CaseOnly): 0.72
- CARE OR (rs3000490 allele G vs A (ref), Source cohort): 1.45
- CARE OR (rs3213616 allele A vs G (ref), Source cohort): 0.62
- CARE OR (rs3732788 allele G vs A (ref), Source cohort): 0.56
